From patent US20230089557A1, “METHODS OF TREATING DLBCL USING BTK INHIBITORS AND COMBINATIONS THEREOF” (BEIGENE SWITZERLAND GMBH, priority 2020, published 2023)

Tests used:
Assay type in all cases: in vivo, mice
Details in all cases: p.o. 7.5 mg/kg BID
Non-GCB DLBCL PDX models [1] = test: Compound 1 efficacy (TGI) in non-GCB DLBCL PDX models by CD79B / CD79B ITAM mutation
Excerpt: (§1) DLBCL patient-derived xenografted (PDX) models were established in immunodeficient NCG (NOD-Prkdcem26Cd52Il2rgem26Cd22/NjuCrl) mice. These models were classified into GCB and non-GCB subgroups based on immunohistochemistry (IHC) staining using Hans algorithm. Non-GCB DLBCL PDX models were classified into CD79B mutant versus CD79B wildtype groups; or CD79B ITAM domain mutant (amino acid 193-210) versus CD79B ITAM domain wildtype groups. For efficacy studies, tumor tissues were inoculated subcutaneously into NCG mice. When tumors reached 100˜200 mm^3, mice were randomized into each group with 7˜10 mice/group based on tumor volume. Compound 1 was formulated with 0.5% methyl cellulose as vehicle and treatment was started on the day of randomized grouping. Compound 1 was administrated p.o., 7.5 mg/(kg body weight), BID. Tumor volumes were measured twice weekly in two dimensions using a caliper, and the volume were expressed in mm^3 using the formula:
(§2) V=0.5(a×b^2) where a and b are the long and short diameters of the tumor, respectively.
(§3) Tumor growth inhibition (TGI) was calculated using the following formula:
(§4) % TGI=100×[1−(treatmentvt−treatmentv0)/(vehiclevt−Vehiclev0)]
(§5) Treatmentvt=tumor volume of treatment group at time t.
(§6) treatmentv0=tumor volume of treatment group at time of treatment started.
(§7) Vehiclevt=tumor volume of vehicle group at time t.
(§8) Vehiclev0=tumor volume of vehicle group at time of treatment started.
(§9) P value was calculated using two tails t test.

[2] = test system: DLBCL patient-derived xenografted (PDX) models; test: Compound 1 efficacy (TGI) in DLBCL PDX models, GCB vs non-GCB
Excerpt: as §1, with “algorithm (Hans, C. P., et al., Blood, 2004. 103 (1): p. 275-282).” for “algorithm. Non-GCB DLBCL PDX models were classified into CD79B mutant versus CD79B wildtype groups; or CD79B ITAM domain mutant (amino acid 193-210) versus CD79B ITAM domain wildtype groups.”, “100-200” for “100˜200”, “7-10” for “7˜10”
as §2, §3, §4, §5, §6, §7, §8, §9

Non-GCB DLBCL PDX models [3] = test: Compound 1 efficacy (TGI) in non-GCB DLBCL PDX models by EBV status
Excerpt: as §1, with “Epstein-Barr virus (EBV) negative and EBV positive subgroups.” for “CD79B mutant versus CD79B wildtype groups; or CD79B ITAM domain mutant (amino acid 193-210) versus CD79B ITAM domain wildtype groups.”
as §2, §3, §4, §5
treatmentv0=tumor volume of treatment group at time of treatment started. […]
Average TGI of each model was used and represented as a dot point in the figure. P value was calculated using two tails t test to compare difference between groups.

## C=CC(=O)N1CCC([C@@H]2CCNc3c(C(N)=O)c(-c4ccc(Oc5ccccc5)cc4)nn32)CC1 [Compound 1, (S)-7-(1-acryloylpiperidin-4-yl)-2-(4-phenoxyphenyl)-4,5,6,7-tetra-hydropyrazolo[1,5-a]pyrimidine-3-carboxamide]
Non-GCB DLBCL PDX models [1]; CD79B ITAM domain mutation non-GCB DLBCL models
  TGI (mean±SD): 96.00±28.83%
Non-GCB DLBCL PDX models [1]; CD79B mutation non-GCB DLBCL models
  TGI (mean±SD): 87.5±33.14%
Non-GCB DLBCL PDX models [1]; CD79B wildtype non-GCB DLBCL models
  TGI (mean±SD): 49.44±42.36%
[2]; GCB subtype PDX models
  TGI (mean±SD): 25.5±11.96%
[2]; non-GCB DLBCL PDX models
  TGI (mean±SD): 63.60±42.92%
Non-GCB DLBCL PDX models [3]; EBV negative non-GCB DLBCL models
  TGI (mean±SD): 78.00±43.41%
Non-GCB DLBCL PDX models [3]; EBV positive non-GCB DLBCL models
  TGI (mean±SD): 33.25±22.41%
